What was measured:
MDM2 = MDM2 (Homo sapiens (Human), UniProt Q00987); experiment: In vitro MDM2 HTRF assay (inhibition of p53-MDM2 interaction); type: binding; conditions: GST-MDM2 / biotinylated p53 peptide
[1] = tested on: BCL-2-dependent acute lymphoblastic leukemia (ALL) cell line RS4;11 overexpressing Bcl-2 G101V; experiment: cells; type: cell-based; conditions: Homo sapiens, RS4-11; about 72 hours, ATPlite luminescence; read-out: RS4;11-G101V IC50
Method in brief: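 About 1×10^4 cells per well treated with compound for about 72 hours in medium with 5% FBS or 10% normal human serum. Viability from ATP-based luminescence (ATPlite) after lysis; IC50 derived from dose range.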

Mice PK study = type: in vivo; conditions: 25 mg/kg; Oral, 25 mpk, CD-1 mouse, plasma
Experimental: Biological Example 4: Mice PK Study
The pharmacokinetics of compounds were evaluated in CD-1 mouse via Intravenous and Oral Administration. The IV dose was administered as a slow bolus in the Jugular vein, and oral doses were administered by gavage. The formulation for IV dosing was 5% DMSO in 20% HPBCD in water, and the PO formulation was 2.5% DMSO, 10% EtOH, 20% Cremphor EL, 67.5% D5W. The PK time point for the IV arm was 5, 15, 30 min, 1, 2, 4, 6, 8, 12, 24 hours post dose, and for PO arm was 15, 30 min, 1, 2, 4, 6, 8, 12, 24 hours post dose. Approximately 0.03 mL blood was collected at each time point. Blood of each sample was transferred into plastic micro centrifuge tubes containing EDTA-K2 and collect plasma within 15 min by centrifugation at 4000 g for 5 minutes in a 4° C. centrifuge. Plasma samples were stored in polypropylene tubes. The samples were stored in a freezer at −75±15° C. prior to analysis. Concentrations of compounds in the plasma samples were analyzed using a LC-MS/MS method. […] The following pharmacokinetic parameters were calculated, whenever possible from the plasma concentration versus time data: IV administration: C0, CL, Vd, T1/2, AUCinf, AUClast, MRT, Number of Points for Regression; PO administration: Cmax, Tmax, T1/2, AUCinf, AUClast, F %, Number of Points for Regression. […]

MDM2, sequence (Q00987 whole entry): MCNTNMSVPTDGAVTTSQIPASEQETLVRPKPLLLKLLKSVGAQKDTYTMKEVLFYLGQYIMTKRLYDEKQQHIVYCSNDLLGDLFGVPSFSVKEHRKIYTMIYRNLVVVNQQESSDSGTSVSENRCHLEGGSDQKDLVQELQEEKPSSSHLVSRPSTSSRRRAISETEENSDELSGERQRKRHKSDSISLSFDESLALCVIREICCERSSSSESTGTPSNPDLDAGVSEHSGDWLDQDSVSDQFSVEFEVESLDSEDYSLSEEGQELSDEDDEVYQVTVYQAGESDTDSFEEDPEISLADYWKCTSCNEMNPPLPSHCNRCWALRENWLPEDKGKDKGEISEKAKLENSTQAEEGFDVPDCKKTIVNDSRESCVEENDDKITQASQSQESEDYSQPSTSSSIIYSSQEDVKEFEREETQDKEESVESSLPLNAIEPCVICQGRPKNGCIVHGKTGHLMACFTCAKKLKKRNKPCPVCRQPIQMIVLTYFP

Row | Compound | IC50 (MDM2) | IC50 [1] | AUC (Mice PK study)
1 | COc1cc(C(=O)N2CCC3(CC2)C[C@@H]3C#Cc2cccc3c2CN(C2CCC(=O)NC2=O)C3=O)ccc1NC(=O)[C@@H]1N[C@@H](CC(C)(C)C)[C@@]2(CNc3cc(Cl)ccc32)[C@H]1c1cccc(Cl)c1F (stereo partly drawn) [Example 44, (2′S,3S,4′S,5′R)-6-chloro-4′-(3-chloro-2-fluorophenyl)-2′-(2,2-dimethylpropyl)-N-{4-[(1S)-1-{2-[2-(2,6-dioxopiperidin-3-yl)-1-oxo-3H-isoindol-4-yl]ethynyl}-6-azaspiro[2.5]octane-6-carbonyl]-2-methoxyphenyl}-1,2-dihydrospiro[indole-3,3′-pyrrolidine]-5′-carboxamide] | 1.83 nM | 13.1 nM | 
2 | COc1cc(C(=O)N2CC[C@H](C#Cc3cccc4c3CN(C3CCC(=O)NC3=O)C4=O)C2)ccc1NC(=O)[C@@H]1N[C@@H](CC(C)(C)C)[C@@]2(CNc3cc(Cl)ccc32)[C@H]1c1cccc(Cl)c1F (stereo partly drawn) [Example 48, (2′S,3S,4′S,5′R)-6-chloro-4′-(3-chloro-2-fluorophenyl)-2′-(2,2-dimethylpropyl)-N-{4-[(3R)-3-{2-[2-(2,6-dioxopiperidin-3-yl)-1-oxo-3H-isoindol-4-yl]ethynyl}pyrrolidine-1-carbonyl]-2-methoxyphenyl}-1,2-dihydrospiro[indole-3,3′-pyrrolidine]-5′-carboxamide] | 1.21 nM | 12.4 nM | 
3 | COc1cc(C(=O)N2CC[C@@H](C#Cc3cccc4c3CN(C3CCC(=O)NC3=O)C4=O)C2)ccc1NC(=O)[C@@H]1N[C@@H](CC(C)(C)C)[C@@]2(CNc3cc(Cl)ccc32)[C@H]1c1cccc(Cl)c1F (stereo partly drawn) [Example 49, (2′S,3S,4′S,5′R)-6-chloro-4′-(3-chloro-2-fluorophenyl)-2′-(2,2-dimethylpropyl)-N-{4-[(3S)-3-{2-[2-(2,6-dioxopiperidin-3-yl)-1-oxo-3H-isoindol-4-yl]ethynyl}pyrrolidine-1-carbonyl]-2-methoxyphenyl}-1,2-dihydrospiro[indole-3,3′-pyrrolidine]-5′-carboxamide] | 1.05 nM | 14.1 nM | 
4 | COc1cc(C(=O)N[C@@H]2CCCN(CC#Cc3cccc4c3CN(C3CCC(=O)NC3=O)C4=O)C2)ccc1NC(=O)[C@@H]1N[C@@H](CC(C)(C)C)[C@@]2(CNc3cc(Cl)ccc32)[C@H]1c1cccc(Cl)c1F (stereo partly drawn) [Example 50, (2′S,3S,4′S,5′R)-6-chloro-4′-(3-chloro-2-fluorophenyl)-2′-(2,2-dimethylpropyl)-N-(4-{[(3R)-1-{3-[2-(2,6-dioxopiperidin-3-yl)-1-oxo-3H-isoindol-4-yl]prop-2-yn-1-yl}piperidin-3-yl]carbamoyl}-2-methoxyphenyl)-1,2-dihydrospiro[indole-3,3′-pyrrolidine]-5′-carboxamide] | 1.59 nM | 23.5 nM | 
5 | COc1cc(C(=O)N2CCN(CC#Cc3cccc4c3CN(C3CCC(=O)NC3=O)C4=O)CC2)ccc1NC(=O)[C@@H]1N[C@@H](CC(C)(C)C)[C@@]2(CNc3cc(Cl)ccc32)[C@H]1c1cccc(Cl)c1F (stereo partly drawn) [Example 51, (2′S,3S,4′S,5′R)-6-chloro-4′-(3-chloro-2-fluorophenyl)-2′-(2,2-dimethylpropyl)-N-[4-(4-{3-[2-(2,6-dioxopiperidin-3-yl)-1-oxo-3H-isoindol-4-yl]prop-2-yn-1-yl}piperazine-1-carbonyl)-2-methoxyphenyl]-1,2-dihydrospiro[indole-3,3′-pyrrolidine]-5′-carboxamide] | 1.42 nM | 18.3 nM | 
6 | COc1cc(C(=O)N2CCC3(CC2)C[C@@H]3C#Cc2cccc3c2CN([C@H]2CCC(=O)NC2=O)C3=O)ccc1NC(=O)[C@@H]1N[C@@H](CC(C)(C)C)[C@@]2(CNc3cc(C(F)(F)F)ncc32)[C@H]1c1cccc(Cl)c1F [Example 56, (2S,3S,4S,5R)-4-(3-chloro-2-fluorophenyl)-N-(4-((S)-1-((2-((S)-2,6-dioxopiperidin-3-yl)-1-oxoisoindolin-4-yl)ethynyl)-6-azaspiro[2.5]octane-6-carbonyl)-2-methoxyphenyl)-2-neopentyl-6′-(trifluoromethyl)-1′,2′-dihydrospiro[pyrrolidine-3,3′-pyrrolo[3,2-c]pyridine]-5-carboxamide] | 23.4 nM | 1.09 nM | 
7 | COc1cc(C(=O)N2CCC3(CC2)C[C@@H]3C#Cc2cccc3c2CN([C@H]2CCC(=O)NC2=O)C3=O)ccc1NC(=O)[C@@H]1N[C@@H](CC(C)(C)C)[C@@]2(CNc3cc(Cl)ccc32)[C@H]1c1cccc(Cl)c1F [Example 58, (2′S,3S,4′S,5′R)-6-chloro-4′-(3-chloro-2-fluorophenyl)-2′-(2,2-dimethylpropyl)-N-{4-[(1S)-1-(2-{2-[(3S)-2,6-dioxopiperidin-3-yl]-1-oxo-3H-isoindol-4-yl}ethynyl)-6-azaspiro[2.5]octane-6-carbonyl]-2-methoxyphenyl}-1,2-dihydrospiro[indole-3,3′-pyrrolidine]-5′-carboxamide] | 3.38 nM | 7.71 nM | 49400 ng·h/mL
